Data as given in PubChem BioAssay (NCI).
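These data come from cells grown in 96-well plates and exposed to compound for 48 hours at five concentrations. At the GI50, growth is halved. TGI is the concentration that stops growth completely.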

Columns and labels:
Assay in all cases: DTP human tumour cell line panel, 48 h
SNB-75 CNS = system: SNB-75 CNS
SF-539 CNS = system: SF-539 CNS
OVCAR-4 ovarian = system: OVCAR-4 ovarian
HT29 colon = system: HT29 colon
TK-10 renal = system: TK-10 renal
IGROV1 ovarian = system: IGROV1 ovarian
MDA-MB-435 = system: MDA-MB-435
SF-295 CNS = system: SF-295 CNS
U251 CNS = system: U251 CNS
BT-549 breast = system: BT-549 breast
RXF 393 renal = system: RXF 393 renal
MOLT-4 leukemia = system: MOLT-4 leukemia
HOP-62 NSCLC = system: HOP-62 NSCLC
OVCAR-3 ovarian = system: OVCAR-3 ovarian
HL-60(TB) leukemia = system: HL-60(TB) leukemia
MALME-3M melanoma = system: MALME-3M melanoma
M14 melanoma = system: M14 melanoma
KM12 colon = system: KM12 colon
SF-268 CNS = system: SF-268 CNS
A498 renal = system: A498 renal
CAKI-1 renal = system: CAKI-1 renal
HS 578T breast = system: HS 578T breast
NCI-H460 lung = system: NCI-H460 lung
PC-3 prostate = system: PC-3 prostate
HCT-15 colon = system: HCT-15 colon
DU-145 prostate = system: DU-145 prostate
COLO 205 colon = system: COLO 205 colon
786-0 renal = system: 786-0 renal
NCI-H522 lung = system: NCI-H522 lung
SK-MEL-2 melanoma = system: SK-MEL-2 melanoma
LOX IMVI melanoma = system: LOX IMVI melanoma
A549 NSCLC = system: A549 NSCLC
MDA-MB-231 breast = system: MDA-MB-231 breast
SNB-19 CNS = system: SNB-19 CNS
CCRF-CEM leukemia = system: CCRF-CEM leukemia
NCI-H226 lung = system: NCI-H226 lung
SN12C renal = system: SN12C renal
NCI-H23 lung = system: NCI-H23 lung
OVCAR-5 ovarian = system: OVCAR-5 ovarian
SW-620 colon = system: SW-620 colon
SR leukemia = system: SR leukemia
SK-MEL-28 melanoma = system: SK-MEL-28 melanoma
UO-31 renal = system: UO-31 renal
T-47D breast = system: T-47D breast
HCC-2998 colon = system: HCC-2998 colon
SK-OV-3 ovarian = system: SK-OV-3 ovarian
UACC-62 melanoma = system: UACC-62 melanoma
SK-MEL-5 melanoma = system: SK-MEL-5 melanoma
ACHN renal = system: ACHN renal
HCT-116 colon = system: HCT-116 colon
EKVX NSCLC = system: EKVX NSCLC
MCF7 breast = system: MCF7 breast
OVCAR-8 ovarian = system: OVCAR-8 ovarian
HOP-92 NSCLC = system: HOP-92 NSCLC
K-562 leukemia = system: K-562 leukemia
UACC-257 melanoma = system: UACC-257 melanoma
NCI/ADR-RES ovarian = system: NCI/ADR-RES ovarian
RPMI-8226 leukemia = system: RPMI-8226 leukemia

Cc1nc2cnc(N)c(C#Cc3cncc(C(=O)Nc4ccc(Cl)c(C(F)(F)F)c4)c3)c2nc1C
GI50 (SNB-75 CNS): 2.43 µM
TGI (SNB-75 CNS): 11.8 µM
GI50 (SF-539 CNS): 0.518 µM
TGI (SF-539 CNS): 10.2 µM
GI50 (OVCAR-4 ovarian): 4.01 µM
TGI (OVCAR-4 ovarian): 17 µM
GI50 (HT29 colon): 0.346 µM
TGI (HT29 colon): 2.11 µM
GI50 (TK-10 renal): 5.32 µM
TGI (TK-10 renal): 18.9 µM
GI50 (IGROV1 ovarian): 0.653 µM
TGI (IGROV1 ovarian): 12.6 µM
GI50 (MDA-MB-435): 0.442 µM
TGI (MDA-MB-435): 4.06 µM
GI50 (SF-295 CNS): 3.44 µM
TGI (SF-295 CNS): 18.8 µM
GI50 (U251 CNS): 2.88 µM
TGI (U251 CNS): 16.9 µM
GI50 (BT-549 breast): 1.99 µM
TGI (BT-549 breast): 6.64 µM
GI50 (RXF 393 renal): 0.799 µM
TGI (RXF 393 renal): 4.23 µM
GI50 (MOLT-4 leukemia): 1.68 µM
TGI (MOLT-4 leukemia): 5.82 µM
GI50 (HOP-62 NSCLC): 1.87 µM
TGI (HOP-62 NSCLC): 18.7 µM
GI50 (OVCAR-3 ovarian): 3.33 µM
TGI (OVCAR-3 ovarian): 12.7 µM
GI50 (HL-60(TB) leukemia): 0.0754 µM
TGI (HL-60(TB) leukemia): 4.12 µM
GI50 (MALME-3M melanoma): 0.118 µM
TGI (MALME-3M melanoma): 0.825 µM
GI50 (M14 melanoma): 0.243 µM
TGI (M14 melanoma): 1.85 µM
TGI (KM12 colon): 3.53 µM
GI50 (SF-268 CNS): 2.46 µM
TGI (SF-268 CNS): 15.6 µM
GI50 (A498 renal): 3.1 µM
TGI (A498 renal): 15.4 µM
GI50 (CAKI-1 renal): 2.26 µM
TGI (CAKI-1 renal): 15.6 µM
GI50 (HS 578T breast): 1.64 µM
TGI (HS 578T breast): 7.19 µM
GI50 (NCI-H460 lung): 2.3 µM
TGI (NCI-H460 lung): 10.2 µM
GI50 (PC-3 prostate): 3.9 µM
TGI (PC-3 prostate): 18.7 µM
GI50 (HCT-15 colon): 1.55 µM
TGI (HCT-15 colon): 4.03 µM
GI50 (DU-145 prostate): 2.93 µM
TGI (DU-145 prostate): 13.3 µM
GI50 (COLO 205 colon): 0.442 µM
TGI (COLO 205 colon): 9.17 µM
GI50 (786-0 renal): 3.41 µM
TGI (786-0 renal): 17.9 µM
GI50 (NCI-H522 lung): 1.8 µM
TGI (NCI-H522 lung): 14.8 µM
GI50 (SK-MEL-2 melanoma): 0.328 µM
TGI (SK-MEL-2 melanoma): 1.89 µM
GI50 (LOX IMVI melanoma): 0.257 µM
TGI (LOX IMVI melanoma): 1.43 µM
GI50 (A549 NSCLC): 3.27 µM
TGI (A549 NSCLC): 22.6 µM
GI50 (MDA-MB-231 breast): 0.308 µM
TGI (MDA-MB-231 breast): 5.09 µM
GI50 (SNB-19 CNS): 6.53 µM
TGI (SNB-19 CNS): 20.7 µM
GI50 (CCRF-CEM leukemia): 3.75 µM
TGI (CCRF-CEM leukemia): 52.8 µM
GI50 (NCI-H226 lung): 0.555 µM
TGI (NCI-H226 lung): 9.79 µM
GI50 (SN12C renal): 1.16 µM
TGI (SN12C renal): 4 µM
GI50 (NCI-H23 lung): 0.579 µM
TGI (NCI-H23 lung): 5.4 µM
GI50 (OVCAR-5 ovarian): 0.383 µM
TGI (OVCAR-5 ovarian): 11.3 µM
GI50 (SW-620 colon): 0.891 µM
TGI (SW-620 colon): 11.2 µM
GI50 (SR leukemia): 1.71 µM
TGI (SR leukemia): 5.02 µM
GI50 (SK-MEL-28 melanoma): 0.264 µM
TGI (SK-MEL-28 melanoma): 1.68 µM
GI50 (UO-31 renal): 0.381 µM
TGI (UO-31 renal): 10.9 µM
GI50 (T-47D breast): 5.02 µM
TGI (T-47D breast): 27.6 µM
GI50 (HCC-2998 colon): 0.771 µM
TGI (HCC-2998 colon): 4.35 µM
GI50 (SK-OV-3 ovarian): 9.11 µM
TGI (SK-OV-3 ovarian): 23.3 µM
GI50 (UACC-62 melanoma): 0.264 µM
TGI (UACC-62 melanoma): 2.15 µM
GI50 (SK-MEL-5 melanoma): 1.08 µM
TGI (SK-MEL-5 melanoma): 11.1 µM
GI50 (ACHN renal): 1.89 µM
TGI (ACHN renal): 12.1 µM
GI50 (HCT-116 colon): 0.249 µM
TGI (HCT-116 colon): 2.11 µM
GI50 (EKVX NSCLC): 2.48 µM
TGI (EKVX NSCLC): 19.1 µM
GI50 (MCF7 breast): 1.91 µM
TGI (MCF7 breast): 6.84 µM
GI50 (OVCAR-8 ovarian): 4.45 µM
TGI (OVCAR-8 ovarian): 24.5 µM
GI50 (HOP-92 NSCLC): 0.196 µM
TGI (HOP-92 NSCLC): 1.78 µM
GI50 (K-562 leukemia): 0.168 µM
TGI (K-562 leukemia): > 100 µM
GI50 (UACC-257 melanoma): 0.519 µM
TGI (UACC-257 melanoma): 9.65 µM
GI50 (NCI/ADR-RES ovarian): 2.95 µM
TGI (NCI/ADR-RES ovarian): 19.1 µM
GI50 (RPMI-8226 leukemia): 3.32 µM
TGI (RPMI-8226 leukemia): 22.5 µM
